Assay [1] relates to HT-29. In words: Cytotoxicity against human HT-29 cells after 96 hrs by sulforhodamine-B assay. Format: functional, cell-based. The conditions noted are these: HT-29, 96 h.
The test system of assay [2] is MCF7. In words: Cytotoxicity against human MCF7 cells after 96 hrs by sulforhodamine-B assay. Format: functional, cell-based. The conditions noted are these: MCF7, 96 h.
In assay [3] the test system is 518A2. In words: Cytotoxicity against human 518A2 cells after 96 hrs by sulforhodamine-B assay. Format: functional, cell-based. The conditions noted are these: 518A2, 96 h. (In general: The SRB assay estimates cell density from bound dye.)
Assay [4] relates to A2780. In words: Cytotoxicity against human A2780 cells after 96 hrs by sulforhodamine-B assay. Format: functional, cell-based. The conditions noted are these: A2780, 96 h.
The subject of assay [5] is A549. In words: Cytotoxicity against human A549 cells after 96 hrs by sulforhodamine-B assay. Format: functional, cell-based. Particulars: A549, 96 h.
Assay [6] concerns FaDu. In words: Cytotoxicity against human FADU cells after 96 hrs by sulforhodamine-B assay. Format: functional, cell-based.
Assay [7] deals with NIH3T3. In words: Cytotoxicity against mouse NIH/3T3 cells after 96 hrs by sulforhodamine-B assay. Format: cell-based. The conditions noted are these: NIH3T3, 96 h.

pEC50: −log10 of the molar value. Bounds are passed on as bounds.

For the compound `CC1(C)CC[C@]2(C(=O)N(CC(=O)NC(C)(C)C)Cc3ccoc3)CC[C@]3(C)C(=CC[C@@H]4[C@@]5(C)CC[C@H](O)C(C)(C)[C@@H]5CC[C@]43C)[C@@H]2C1`, the pEC50 – broadly, the EC50 on a negative log10 scale, so that one unit is a factor of ten – was 5.17 in assay [1]; 5.39 in assay [2]; 4.86 in assay [3]; 5.00 in assay [4]; 4.72 in assay [5]; 4.76 in assay [6]. The pEC50 in assay [7] is 4.93.

Turning to `CC1(C)CC[C@]2(C(=O)N(CC(=O)NC(C)(C)C)Cc3cccc(F)c3)CC[C@]3(C)C(=CC[C@@H]4[C@@]5(C)CC[C@H](O)C(C)(C)[C@@H]5CC[C@]43C)[C@@H]2C1`, the negative logarithm of the EC50 (pEC50) in assay [1], in assay [2], in assay [3], in assay [4], in assay [6] and in assay [7] was under 4.52 each time.

On to `CC(=O)O[C@H]1CC[C@]2(C)[C@H]3CC=C4[C@@H]5CC(C)(C)CC[C@]5(C(=O)OCC(=O)NC(C)(C)C)CC[C@@]4(C)[C@]3(C)CC[C@H]2C1(C)C`, for which the pEC50 is 4.56 in assay [1]; 4.89 in assay [2]; 4.88 in assay [3]; 5.06 in assay [4]; 4.88 in assay [5]; 4.90 in assay [6]. For the same compound, the pEC50 in assay [7] was 4.70.

As to `CC(C)NC(=O)CN(Cc1ccoc1)C(=O)[C@]12CCC(C)(C)C[C@H]1C1=CC[C@@H]3[C@@]4(C)CC[C@H](O)C(C)(C)[C@@H]4CC[C@@]3(C)[C@]1(C)CC2`, the pEC50 in assay [1] was 5.31; in assay [2] it was 5.31; in assay [3] it was 5.26; in assay [4] it was 5.23; in assay [6], 5.10; in assay [7], 5.26.

As for `CC1(C)CC[C@]2(C(=O)O)CC[C@]3(C)C(=CC[C@@H]4[C@@]5(C)C[C@@H](O)[C@H](O)C(C)(C)[C@@H]5CC[C@]43C)[C@@H]2C1` [MASLINIC ACID], the pEC50 in assay [2] was 4.43; in assay [6], 4.77.

As to `CC(C)N(CC(=O)NCc1ccccc1)C(=O)[C@]12CCC(C)(C)C[C@H]1C1=CC[C@@H]3[C@@]4(C)CC[C@H](O)C(C)(C)[C@@H]4CC[C@@]3(C)[C@]1(C)CC2`, the pEC50 in assay [1] was under 4.52; in assay [2], 4.71; in assay [3] it was under 4.52; in assay [4], 4.81; in assay [6] it was under 4.52; in assay [7], under 4.52.

As for `C=CCN(CC(=O)NCc1ccccc1)C(=O)[C@]12CCC(C)(C)C[C@H]1C1=CC[C@@H]3[C@@]4(C)CC[C@H](OC(C)=O)C(C)(C)[C@@H]4CC[C@@]3(C)[C@]1(C)CC2`, the pEC50 in assay [1] was under 4.52; in assay [2] it was 4.72; in assay [3], 4.72; in assay [4] it was 5.22; in assay [6], 4.81; in assay [7], under 4.52.

On to `CC(=O)O[C@H]1CC[C@]2(C)[C@H]3CC=C4[C@@H]5CC(C)(C)CC[C@]5(C(=O)N(CC(=O)NCc5ccccc5)Cc5ccoc5)CC[C@@]4(C)[C@]3(C)CC[C@H]2C1(C)C`, for which the pEC50 in assay [1] is under 4.52; in assay [2], 4.82; in assay [3], 4.80; in assay [4] it was 5.20; in assay [5], under 4.52; in assay [6], 4.66. This compound showed a pEC50 in assay [7] of under 4.52.

As for `CC(=O)O[C@@H]1C[C@]2(C)[C@H]3CC=C4[C@@H]5CC(C)(C)CC[C@]5(C(=O)N(CC(=O)NC(C)(C)C)Cc5ccoc5)CC[C@@]4(C)[C@]3(C)CC[C@H]2C(C)(C)[C@H]1OC(C)=O`, the pEC50 was 5.47 in assay [1]; 5.40 in assay [2]; 5.41 in assay [3]; 6.40 in assay [4]; 5.46 in assay [5]; 5.52 in assay [6]. The same compound had a pEC50 in assay [7] of 5.14.

With `CCCCN(CC(=O)NCc1ccccc1)C(=O)[C@]12CCC(C)(C)C[C@H]1C1=CC[C@@H]3[C@@]4(C)CC[C@H](O)C(C)(C)[C@@H]4CC[C@@]3(C)[C@]1(C)CC2`, the pEC50 in assay [1] is 4.81; in assay [2], 4.61; in assay [3], under 4.52; in assay [4], under 4.52; in assay [6], under 4.52; in assay [7], under 4.52.

In the case of `CCCCNC(=O)CN(Cc1ccccc1)C(=O)[C@]12CCC(C)(C)C[C@H]1C1=CC[C@@H]3[C@@]4(C)CC[C@H](O)C(C)(C)[C@@H]4CC[C@@]3(C)[C@]1(C)CC2`, the pEC50 in assay [1], in assay [2], in assay [3], in assay [4], in assay [6] and in assay [7] was under 4.52 throughout.

Take `CC(=O)O[C@H]1CC[C@]2(C)[C@H]3CC=C4[C@@H]5CC(C)(C)CC[C@]5(C(=O)OCC(=O)NCc5ccccc5)CC[C@@]4(C)[C@]3(C)CC[C@H]2C1(C)C`: the pEC50 in assay [1] is 4.95; in assay [2], 5.19; in assay [3], 5.11; in assay [4], 5.17; in assay [5], 5.16; in assay [6], 5.14. For the same compound, the pEC50 in assay [7] was 5.19.

With `CC(=O)O[C@@H]1C[C@]2(C)[C@H]3CC=C4[C@@H]5CC(C)(C)CC[C@]5(C(=O)OCC(=O)NCc5ccccc5)CC[C@@]4(C)[C@]3(C)CC[C@H]2C(C)(C)[C@H]1OC(C)=O`, the pEC50 was 5.31 in assay [1]; 5.44 in assay [2]; 5.37 in assay [3]; 6.00 in assay [4]; 5.49 in assay [5]; 5.14 in assay [6]. Further, the negative-log EC50 (pEC50) in assay [7] is 5.70.

For the compound `CC(=O)O[C@H]1CC[C@]2(C)[C@H]3CC=C4[C@@H]5CC(C)(C)CC[C@]5(C(=O)N(CC(=O)NC(C)(C)C)Cc5ccoc5)CC[C@@]4(C)[C@]3(C)CC[C@H]2C1(C)C`, the pEC50 in assay [1] was under 4.52; in assay [2], 4.70; in assay [3], 4.61; in assay [4] it was 5.15; in assay [5] it was 4.62; in assay [6], 4.54. In assay [7], this compound had a pEC50 of under 4.52.

For `CC(=O)O[C@@H]1C[C@]2(C)[C@H]3CC=C4[C@@H]5CC(C)(C)CC[C@]5(C(=O)O)CC[C@@]4(C)[C@]3(C)CC[C@H]2C(C)(C)[C@H]1OC(C)=O`, the pEC50 in assay [1] was 4.59; in assay [2] it was 5.80; in assay [4], 4.98; in assay [5], 4.72; in assay [6] it was 4.67; in assay [7], 4.91.

With `CC(=O)O[C@H]1CC[C@]2(C)[C@H]3CC=C4[C@@H]5CC(C)(C)CC[C@]5(C(=O)N(CC(=O)NCc5ccccc5)Cc5ccccc5)CC[C@@]4(C)[C@]3(C)CC[C@H]2C1(C)C`, the pEC50 in assay [1] was under 4.52; in assay [2], under 4.52; in assay [3] it was 4.87; in assay [4], 5.27; in assay [5] it was under 4.52; in assay [6] it was 4.69. The compound also gave a pEC50 in assay [7] of under 4.52.

`C=CCN(CC(=O)NCc1ccccc1)C(=O)[C@]12CCC(C)(C)C[C@H]1C1=CC[C@@H]3[C@@]4(C)CC[C@H](O)C(C)(C)[C@@H]4CC[C@@]3(C)[C@]1(C)CC2`: the pEC50 is under 4.52 in assay [1]; under 4.52 in assay [2]; under 4.52 in assay [3]; 4.89 in assay [4]; under 4.52 in assay [5]; under 4.52 in assay [6]. Moreover, in assay [7], the pEC50 was under 4.52.

Turning to `C=CCN(CC(=O)NC(C)(C)C)C(=O)[C@]12CCC(C)(C)C[C@H]1C1=CC[C@@H]3[C@@]4(C)CC[C@H](OC(C)=O)C(C)(C)[C@@H]4CC[C@@]3(C)[C@]1(C)CC2`, the negative logarithm of the EC50 (pEC50) in assay [1] is under 4.52; in assay [2], 4.92; in assay [3], 4.65; in assay [4], 4.90; in assay [5] it was 4.62; in assay [6], under 4.52. This compound also had a pEC50 in assay [7] of under 4.52.

Consider `C=CCN(CC(=O)NCCCC)C(=O)[C@]12CCC(C)(C)C[C@H]1C1=CC[C@@H]3[C@@]4(C)CC[C@H](O)C(C)(C)[C@@H]4CC[C@@]3(C)[C@]1(C)CC2`, for which the pEC50 in assay [1] is under 4.52; in assay [2] it was 4.67; in assay [3], under 4.52; in assay [4] it was 4.71; in assay [6], under 4.52; in assay [7], under 4.52.

Regarding `CC1(C)CC[C@]2(C(=O)N(CC(=O)NCc3ccccc3)Cc3ccccc3)CC[C@]3(C)C(=CC[C@@H]4[C@@]5(C)CC[C@H](O)C(C)(C)[C@@H]5CC[C@]43C)[C@@H]2C1`, the pEC50 in assay [1], in assay [2], in assay [3], in assay [4], in assay [6] and in assay [7] was under 4.52 in each case.

Turning to `CC(=O)O[C@H]1CC[C@]2(C)[C@H]3CC=C4[C@@H]5CC(C)(C)CC[C@]5(C(=O)N(C)CC(=O)NC(C)(C)C)CC[C@@]4(C)[C@]3(C)CC[C@H]2C1(C)C`, the pEC50 in assay [1] is 4.63; in assay [2] it was 5.24; in assay [3] it was 5.06; in assay [4], 5.39; in assay [6] it was 5.17; in assay [7], 5.00.

In the case of `CC1(C)CC[C@]2(C(=O)N(CC(=O)NC(C)(C)C)Cc3ccccc3)CC[C@]3(C)C(=CC[C@@H]4[C@@]5(C)CC[C@H](O)C(C)(C)[C@@H]5CC[C@]43C)[C@@H]2C1`, the pEC50 in assay [1] was 4.94; in assay [2], 4.83; in assay [3], 4.94; in assay [4] it was 4.87; in assay [6], 4.75; in assay [7], 5.06.

On to `CCCCNC(=O)CN(Cc1ccoc1)C(=O)[C@]12CCC(C)(C)C[C@H]1C1=CC[C@@H]3[C@@]4(C)CC[C@H](O)C(C)(C)[C@@H]4CC[C@@]3(C)[C@]1(C)CC2`, for which the pEC50 was 4.80 in assay [1]; 4.81 in assay [2]; under 4.52 in assay [3]; 4.75 in assay [4]; under 4.52 in assay [6]; under 4.52 in assay [7].

Source of the values: ChEMBL document CHEMBL4196076, “An access to a library of novel triterpene derivatives with a promising pharmacological potential by Ugi and Passerini multicomponent reactions” (Eur J Med Chem, 2018).
